Measured values reported in patent US20100240683A1, “COMBINATION THERAPY, COMPOSITION AND METHODS FOR THE TREATMENT OF CARDIOVASCULAR DISORDERS” (Syndromex Ltd., priority 2007, published 2010).
Values belong to the compound of their own block, whether it stands above or below them.

Legend:
[1] = target: T1, CYP2B6 (Homo sapiens, UniProt P20813); assay: Fluorimetric CYP inhibition assay, CYP2B6-EFC; conditions: read-out: IC50 CYP2B6; substrate EFC
T1 sequence (P20813 1-491): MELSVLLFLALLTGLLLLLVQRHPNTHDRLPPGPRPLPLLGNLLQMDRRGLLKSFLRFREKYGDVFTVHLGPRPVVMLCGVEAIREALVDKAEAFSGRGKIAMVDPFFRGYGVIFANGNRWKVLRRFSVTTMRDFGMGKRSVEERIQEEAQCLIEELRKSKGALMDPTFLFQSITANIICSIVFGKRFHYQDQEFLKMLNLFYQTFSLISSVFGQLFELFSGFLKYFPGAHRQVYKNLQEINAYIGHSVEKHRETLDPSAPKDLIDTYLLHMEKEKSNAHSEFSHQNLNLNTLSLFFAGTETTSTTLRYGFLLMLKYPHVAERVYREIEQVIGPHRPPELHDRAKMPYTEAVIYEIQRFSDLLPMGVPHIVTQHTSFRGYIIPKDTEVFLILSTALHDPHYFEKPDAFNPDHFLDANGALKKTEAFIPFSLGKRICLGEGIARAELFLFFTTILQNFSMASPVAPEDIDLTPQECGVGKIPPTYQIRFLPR

[2] = target: T2, CYP1A2 (Homo sapiens, UniProt P05177); assay: in vitro
T2 sequence (P05177 1-516): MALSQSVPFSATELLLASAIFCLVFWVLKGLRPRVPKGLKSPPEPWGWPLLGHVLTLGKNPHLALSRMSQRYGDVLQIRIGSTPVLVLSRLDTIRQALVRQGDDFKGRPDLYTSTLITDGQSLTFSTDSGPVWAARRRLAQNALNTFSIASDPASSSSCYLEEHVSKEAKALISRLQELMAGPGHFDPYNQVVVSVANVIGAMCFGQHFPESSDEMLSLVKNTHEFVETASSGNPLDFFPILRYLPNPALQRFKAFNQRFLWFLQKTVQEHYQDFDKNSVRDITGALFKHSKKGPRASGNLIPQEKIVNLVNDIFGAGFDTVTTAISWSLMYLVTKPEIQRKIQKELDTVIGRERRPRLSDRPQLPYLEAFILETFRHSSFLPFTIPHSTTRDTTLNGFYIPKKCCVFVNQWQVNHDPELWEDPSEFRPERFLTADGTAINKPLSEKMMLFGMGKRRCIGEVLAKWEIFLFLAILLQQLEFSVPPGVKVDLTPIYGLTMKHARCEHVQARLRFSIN

[3] = target: T3, CYP2C8 (Homo sapiens, UniProt P10632)
T3 sequence (P10632 1-490): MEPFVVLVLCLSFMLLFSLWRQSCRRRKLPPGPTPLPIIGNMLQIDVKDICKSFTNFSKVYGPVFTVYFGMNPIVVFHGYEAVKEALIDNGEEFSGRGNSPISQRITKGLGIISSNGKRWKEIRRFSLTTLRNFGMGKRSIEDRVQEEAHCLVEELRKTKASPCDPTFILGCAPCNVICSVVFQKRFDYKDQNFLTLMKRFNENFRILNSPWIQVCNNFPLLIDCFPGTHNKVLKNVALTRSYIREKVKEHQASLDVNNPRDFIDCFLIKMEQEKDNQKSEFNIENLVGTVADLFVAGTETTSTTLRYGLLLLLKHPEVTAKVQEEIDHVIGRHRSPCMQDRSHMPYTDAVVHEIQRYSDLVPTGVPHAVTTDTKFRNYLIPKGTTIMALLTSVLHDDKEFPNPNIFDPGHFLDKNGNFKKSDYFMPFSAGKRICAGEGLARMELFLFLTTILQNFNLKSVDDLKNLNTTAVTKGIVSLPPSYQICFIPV

[4] = target: T3, CYP2C8; assay: in vitro
[5] = tested on: Guinea pigs; assay: Hypolipidemic effect in Guinea pigs model (plasma TG, cholesterol, lipoproteins); type: in vivo, Guinea pig; conditions: Simvastatin table: gavage 10 mg/kg/bw, 21 days, n = 8
Description: • Guinea pigs (400-500 g) were obtained from Harlan (Israel) or Harlan (Netherlands). Animals were treated by gavage with Medica 16αα, Medica 16ββ and Simvastatin as indicated in 1% CMC for the specified treatment periods. During treatment period the animals were weighed and observed daily.
Non-fasted guinea pigs were anesthetized with ketamine (75 mg/kg body weight) and xylazine (6 mg/kg body weight), followed by S.C. abdominal injections of 2% lignocaine. Anesthetized animals were bled into tubes containing EDTA. Plasma chylomicrons were removed by centrifugation (20 min, 30K rpm, TST 55.5 rotor). Plasma TG was assayed by Roche/Hitachi kit. Plasma cholesterol was assayed by Roche Diagnostic's kit.
Chylomicrons-free plasma was subjected to continuous KBr-gradient centrifugation (24 h, 40K rpm, SW41 rotor), followed by fractionating gradient tubes into 0.5 ml fractions. TG, cholesterol and protein of each fraction were measured as described above. […]
Guinea pigs were treated by gavage with M16αα, M16ββ or with Simvastatin, weighed and observed daily. Plasma triglycerides (TG) and cholesterol, as well as plasma lipoproteins and their composition were examined on days 21 and 22 (as specified in the following tables) of the experiments, as described in Experimental procedures. As clearly shown by Table 3 and FIG. 1, treatment with M16αα decreases plasma triglycerides (TG).

[6] = target: CYP2C9 (Homo sapiens, UniProt P11712); assay: Fluorimetric CYP inhibition assay, CYP2C9-MFC; conditions: human, MFC; for inhibition at 0 μM: positive control 0.00 μM (second line); for inhibition at 0.01 μM: positive control 0.01 μM (first line); for inhibition at 0.02 μM: positive control 0.02 μM; for inhibition at 0.06 μM: positive control 0.06 μM; for inhibition at 1.67 μM: positive control 1.67 μM
Chain of CYP2C9 (P11712 whole entry): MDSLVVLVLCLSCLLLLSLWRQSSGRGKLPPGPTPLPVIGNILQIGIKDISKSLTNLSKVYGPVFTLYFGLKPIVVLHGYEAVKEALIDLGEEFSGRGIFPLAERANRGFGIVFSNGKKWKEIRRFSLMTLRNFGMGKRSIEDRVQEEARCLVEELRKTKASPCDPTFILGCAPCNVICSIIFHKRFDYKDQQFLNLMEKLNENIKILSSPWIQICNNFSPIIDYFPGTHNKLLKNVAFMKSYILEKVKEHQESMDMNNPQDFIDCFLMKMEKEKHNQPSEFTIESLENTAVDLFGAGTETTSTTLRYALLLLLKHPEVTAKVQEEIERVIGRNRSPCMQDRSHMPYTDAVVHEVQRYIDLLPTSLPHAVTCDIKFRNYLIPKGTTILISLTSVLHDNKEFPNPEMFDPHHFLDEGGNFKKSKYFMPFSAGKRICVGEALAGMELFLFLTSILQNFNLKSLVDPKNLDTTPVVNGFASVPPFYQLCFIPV

SMILES: N[C@@H]1C[C@H]1c1ccccc1 (racemic) [Tranylcypromine, reference compound]
IC50 [1]: 5.9 µM

inhibition at 5.56 μM ([2]; % Inhibition (set 1)): 90% | inhibition at 50 μM ([2]; % Inhibition (set 2)): 99%
SMILES: Cc1nc2c([nH]1)c(=O)n(C)c(=O)n2Cc1ccco1 [Furafylline, reference compound]

IC50 [3]: 1400 nM | % Inhibition (set 2) ([3]; 0.05 μM): 0% | inhibition at 0.05 μM ([4]; % Inhibition (set 1)): 8% | inhibition at 0.41 μM ([4]; % Inhibition (set 1)): 16% | inhibition at 1.23 μM ([4]; % Inhibition (set 1)): 51% | inhibition at 3.7 μM ([4]; % Inhibition (set 1)): 88% | inhibition at 11.11 μM ([4]; % Inhibition (set 1)): 100% | inhibition at 33.33 μM ([4]; % Inhibition (set 1)): 100% | inhibition at 100 μM ([4]; % Inhibition (set 1)): 100% | inhibition at 0.05 μM ([4]; % Inhibition (set 2)): 0% | inhibition at 0.41 μM ([4]; % Inhibition (set 2)): 9% | inhibition at 1.23 μM ([4]; % Inhibition (set 2)): 32% | inhibition at 3.7 μM ([4]; % Inhibition (set 2)): 89% | inhibition at 11.11 μM ([4]; % Inhibition (set 2)): 98% | inhibition at 33.33 μM ([4]; % Inhibition (set 2)): 100% | inhibition at 100 μM ([4]; % Inhibition (set 2)): 100%
SMILES: O=c1c(O)c(-c2ccc(O)c(O)c2)oc2cc(O)cc(O)c12 [Quercetin, reference compound]

SMILES: CCC(C)(C)C(=O)O[C@H]1C[C@@H](C)C=C2C=C[C@H](C)[C@H](CC[C@@H]3C[C@@H](O)CC(=O)O3)[C@H]21 [Simvastatin, reference compound]
Plasma TG [5]: 83 ± 16 mg % | Plasma cholesterol ([5]; *p < 0.05): 23 ± 2.0* mg %

SMILES: Nc1ccc(S(=O)(=O)Nc2ccnn2-c2ccccc2)cc1 [Sulfaphenazole]
inhibition at 0 μM ([6]; % Inhibition (set 1)): 0% | inhibition at 0.01 μM ([6]; % Inhibition (set 1)): 0% | inhibition at 0.02 μM ([6]; % Inhibition (set 1)): 3% | inhibition at 0.06 μM ([6]; % Inhibition (set 1)): 11% | inhibition at 1.67 μM ([6]; % Inhibition (set 1)): 76% | inhibition at 5 μM ([6]; % Inhibition (set 1), positive control 5.00 μM): 89% | inhibition at 0 μM ([6]; % Inhibition (set 2)): 0% | inhibition at 0.01 μM ([6]; % Inhibition (set 2)): 1% | inhibition at 0.02 μM ([6]; % Inhibition (set 2)): 3% | inhibition at 0.06 μM ([6]; % Inhibition (set 2)): 6% | inhibition at 1.67 μM ([6]; % Inhibition (set 2)): 74%
